According to patent US6833378B2, “Corticotropin releasing factor antagonists” (Pfizer Inc, priority 2000, dated 2004):
Counter-ions that a name gives are not always drawn.

Structure (SMILES) | melting point [°C]
CCC(CC)Oc1nc(C)nc(Nc2c(C)cc(C)cc2C)c1CO [Example 161, [4-(1-Ethyl-propoxy)-2-methyl-6-(2,4,6-trimethyl-phenylamino)-pyrimidin-5-yl]-methanol] | 121 to 123
CCC(CC)Nc1cc(C)nc(Nc2c(C)cc(C)cc2C)c1C(N)=O [Example 119, 4-(1-Ethyl-propylamino)-6-methyl-2-(2,4,6-trimethyl-phenylamino)-nicotinamide] | 204 to 206
CCC(CC)Nc1cc(C)nc(Nc2c(C)cc(C)cc2C)c1CC(C(=O)OC)C(=O)OC [Example 129, 2-[4-(1-Ethyl-propylamino)-6-methyl-2-(2,4,6-trimethyl-phenylamino)-pyridin-3-ylmethyl]-malonic acid dimethyl ester] | 136 to 138
CCC(CC)Oc1cc(C)nc2c1n(C)c(=O)n2-c1c(C)cc(C)cc1C [Example 167, 7-(1-Ethyl-propoxy)-1,5-dimethyl-3-(2,4,6-trimethyl-phenyl)-1,3-dihydro-imidazo[4,5-b]pyridin-2-one] | 151 to 153
CCC(CC)Oc1cc(C)nc(Nc2c(C)cc(C)cc2C)c1CC(C(=O)OC)C(=O)OC [Example 72, 2-[4-(1-Ethyl-propoxy)-6-methyl-2-(2,4,6-trimethyl-phenylamino)-pyridin-3-ylmethyl]-malonic acid dimethyl ester] | 96 to 98
CCC(COC)Nc1cc(C)nc(Oc2ccc(OC(F)(F)F)cc2)c1[N+](=O)[O-] (centres unmarked) [Example 1, (1-Methoxymethyl-propyl)-[6-methyl-3-nitro-2-(4-trifluoromethoxy-phenoxy)-pyridin-4-yl]-amine] | 75 to 76
CCC(CC)Oc1cc(C)nc2c1[nH]c(=O)n2-c1c(C)cc(C)cc1C [Example 166, 7-(1-Ethyl-propoxy)-5-methyl-3-(2,4,6-trimethyl-phenyl)-1,3-dihydro-imidazo[4,5-b]pyridin-2-one] | 184 to 186
CCC(COC)Nc1cc(C)nc(Oc2c(OC)cc(OC)cc2OC)c1[N+](=O)[O-] (centres unmarked) [Example 1, (1-Methoxymethyl-propyl)-[6-methyl-3-nitro-2-(2,4,6-trimethoxy-phenoxy)-pyridin-4-yl]-amine] | 126.8 to 129.5
CCC(CC)Oc1cc(C)nc(Nc2c(C)cc(C)cc2C)c1NC(=O)CCl [Example 124, 2-Chloro-N-[4-(1-ethyl-propoxy)-6-methyl-2-(2,4,6-trimethyl-phenylamino)-pyridin-3-yl]-acetamide] | 79 to 82
CCC(CC)Oc1cc(C)nc(Nc2c(C)cc(C)cc2C)c1C(N)=O (as salt: HCl) [Example 78, 4-(1-Ethyl-propoxy)-6-methyl-2-(2,4,6-trimethyl-phenylamino)-nicotinamide] | 185 to 187
CCC(Nc1cc(C)nc(Oc2c(C)cc(Cl)cc2C)c1CO)C(C)O (centres unmarked) [Example 25, 3-[2-(4-Chloro-2,6-dimethyl-phenoxy)-3-hydroxymethyl-6-methyl-pyridin-4-ylamino]-pentan-2ol] | 180 to 182
CCOC(=S)SCc1c(OC(CC)CC)cc(C)nc1Nc1c(C)cc(C)cc1C [Example 77, Dithiocarbonic acid O-ethyl ester S-[4-(1-ethyl-propoxy)-6-methyl-2-(2,4,6-trimethyl-phenylamino)-pyridin-3-ylmethyl] ester] | 55 to 57
CCC(CC)Oc1nc(C)nc(Nc2c(C)cc(C)cc2C)c1C(=O)O [Example 160, 4-(1-Ethyl-propoxy)-2-methyl-6-(2,4,6-trimethyl-phenylamino)-pyrimidine-5-carboxylic acid] | 118 to 120
CCC(CC)Nc1cc(C)nc2c1nc(N)n2-c1c(C)cc(C)cc1C [Example 170, N7-(1-Ethyl-propyl)-5-methyl-3-(2,4,6-trimethyl-phenyl)-3H-imidazo[4,5-b]pyridine-2,7-diamine] | 158 to 160
CCC(CC)Oc1cc(C)nc(Nc2c(C)cc(C)cc2C)c1C(=O)n1ccnc1 [Example 70, [4-(1-Ethyl-propoxy)-6-methyl-2-(2,4,6-trimethyl-phenylamino)-pyridin-3-yl]-imidazol-1-yl-methanone] | 120 to 122
CC[C@H]1COC(=O)N1c1cc(C)nc(Oc2c(C)cc(Cl)cc2C)c1C(=O)OC [Example 18, 2-(4-Chloro-2,6-dimethyl-phenoxy)-4-(S)-(4-ethyl-2-oxo-oxazolidin-3-yl)-6-methyl-nicotinic acid methyl ester] | 144 to 145.5

Structure (SMILES) | melting point [°C]
CCC(CC)Oc1cc(C)nc(Nc2c(C)cc(C)cc2C)c1 [Example 90, [4-(1-Ethyl-propoxy)-6-methyl-pyridin-2-yl]-(2,4,6-trimethyl-phenyl)-amine] | 98 to 100
CCC(CC)Nc1cc(C)nc(Oc2c(C)cc(C)cc2C)c1NC(=O)C(C)Cl (centres unmarked) [Example 2, 2-Chloro-N-[4-(1-ethyl-propylamino)-6-methyl-2-(2,4,6-trimethyl-phenoxy)-pyridin-3-yl]-propionamide] | 170 to 172
CCC(Nc1cc(C)nc(Oc2c(C)cc(OC)cc2C)c1C(=O)NC)C(C)OC (centres unmarked) [Example 284, 4-(1-Ethyl-2-methoxy-propylamino)-2-(4-methoxy-2,6-dimethyl-phenoxy)-6,N-dimethyl-nicotinamide] | 122.6
CCC(CC)Nc1cc(C)nc(Oc2c(C)cc(C)nc2C)c1C(N)=O [Example 287, 4-(1-Ethyl-propylamino)-6-methyl-2-(2,4,6-trimethyl-pyridin-3-yloxy)-nicotinamide] | 164.3
CCC(CC)Oc1cc(C)nc(Nc2c(C)cc(C)cc2C)c1CNC(=O)CCl [Example 75, 2-Chloro-N-[4-(1-ethyl-propoxy)-6-methyl-2-(2,4,6-trimethyl-phenylamino)-pyridin-3-ylmethyl]-acetamide] | 142 to 144
CCC(CC)Nc1cc(C)nc(Oc2c(C)cc(C)cc2C)c1NC(=O)CCCl [Example 2, 3-Chloro-N-[4-(1-ethyl-propylamino)-6-methyl-2-(2,4,6-trimethyl-phenoxy)-pyridin-3-yl]-propionamide] | 183 to 185
CCC(O)C(CC)Nc1cc(C)nc(Oc2c(C)cc(Cl)cc2C)c1CO (centres unmarked) [Example 26, 4-[2-(4-Chloro-2,6-dimethyl-phenoxy)-3-hydroxymethyl-6-methyl-pyridin-4-ylamino]-hexan-3-ol] | 145 to 148
CCC(CC)Nc1cc(C)nc(Oc2c(C)cc(C)cc2C)c1CN [Example 135, [3-Aminomethyl-6-methyl-2-(2,4,6-trimethyl-phenoxy)-pyridin4-yl]-(1-ethyl-propyl)-amine] | 117 to 119
CCC(COC)Nc1cc(C)nc(Oc2c(C=O)cccc2OC)c1[N+](=O)[O-] (centres unmarked) [Example 1, 3-Methoxy-2-[4-(1-methoxymethyl-propylamino)-6-methyl-3-nitro-pyridin-2-yloxy]-benzaldehyde] | 126.5 to 130.5
CCC(CC)Oc1cc(C)nc(Oc2c(C)cc(C)cc2C)c1[N+](=O)[O-] [Example 60, 4-(1-Ethyl-propoxy)-6-methyl-3-nitro-2-(2,4,6-trimethyl-phenoxy)-pyridine] | 106 to 109
CCC(CC)Nc1cc(C)nc(Oc2c(C)cc(OC)cc2C)c1C(N)=O [Example 262, 4-(1-Ethyl-propylamino)-2-(4-methoxy-2,6-dimethyl-phenoxy)-6-methyl-nicotinamide] | 184
CCC(CC)Oc1nc(C)nc(Nc2c(C)cc(C)cc2C)c1C(N)=O [Example 120, 4-(1-Ethyl-propoxy)-2-methyl-6-(2,4,6-trimethyl-phenylamino)-pyrimidine-5-carboxylic acid amide] | 174 to 176
CCC(CC)Oc1cc(C)nc(Nc2c(C)cc(C)cc2C)c1C(=O)N(C)C (as salt: HCl) [Example 80, 4-(1-Ethyl-propoxy)-6,N,N-trimethyl-2-(2,4,6-trimethyl-phenylamino)-nicotinamide] | 197 to 200
C#CC(CC)Nc1cc(C)nc(Oc2c(C)cc(C)cc2C)c1C(=O)O (centres unmarked) [Example 27, 4-(1-Ethyl-prop-2-ynylamino)-6-methyl-2-(2,4,6-trimethyl-phenoxy)-nicotinic acid] | 131 to 133
Cc1cc(C)c(Oc2nc(C)cc(C(O)C(F)(F)F)c2C)c(C)c1 (centres unmarked) [Example 99, 1-[3,6-Dimethyl-2-(2,4,6-trimethyl-phenoxy)-pyridin-4-yl]-2,2,2-trifluoro-ethanol] | 134 to 139
CCC(CC)Oc1cc(C)nc(Nc2c(C)cc(C)cc2C)c1CN(C)C.Cl | 85 to 88
